{"source": "paper PMC2377083", "about": "“IDN 5390: an oral taxane candidate for protracted treatment schedules” (British Journal of Cancer, 2003)", "key": {"human tumour cell lines": {"test_system": "human tumour cell lines", "format": "cell-based", "procedure": "(§1) Drugs were dissolved in DMSO and freshly diluted in medium before use. The antiproliferative activity was evaluated on A2780 (human ovarian carcinoma) and its derived drug-resistant cell lines (A2780/DX, A2780/DDP), IGROV-1/Pt1 (human ovarian carcinoma), GBM (human glioblastoma) and MX-1 (human mammary carcinoma). All cell lines, except MX-1, were maintained in RPMI 1640 (Bio-Whittaker, Verviers, Belgium) supplemented with 10% fetal calf serum (Life Technologies, Gaithersburg, MD, USA). MX-1 cells were maintained in McCoy's medium (Life Technologies, Gaithersburg, MD, USA) supplemented with 10% fetal calf serum. For experiments, all cell lines were seeded into six-well plates in duplicate and treated, 24 or 72 h (only MX-1 cells) after seeding, with solvent or different concentrations of taxanes. Adherent cells were counted 72 h after the beginning of treatment, by a cell counter (Coulter Electronics, Luton, UK) or detected by the Sulforhodamine B colorimetric assay (only GBM cells). The IC50 was defined as the drug concentration causing a 50% decrease in cell number over that of untreated controls."}, "[1]": {"test_system": "A2780 (human ovarian carcinoma)", "assay": "Antiproliferative activity, A2780", "format": "cell-based", "details": "72 h treatment, cell counting, mean±s.d., three experiments", "procedure": "as §1"}, "[2]": {"test_system": "A2780/DDP ovarian tumour xenograft", "assay": "Antitumour activity on A2780/DDP xenograft", "details": "for Tox/Tot: toxic deaths/total mice", "method": "(§2) All the experiments were carried out using female athymic nude CD-1 mice, 8–11 weeks old (Charles River, Calco, Italy). The mice were maintained in laminar flow rooms with constant temperature and humidity.\n(§3) Taxanes were dissolved by adding absolute ethanol and Cremophor ELP (both 5% of the final volume), in that sequence, on a magnetic stirrer. […] After dilution, the drug solutions were always kept on ice. […] (Milano, Italy) and, just before use, it was diluted, by slowly adding 0.9% NaCl and occasionally stirring the solution (final Polysorbate 80: 10%, v v^−1). […] When higher doses were to be given, larger volumes were injected.\n(§4) Tumour lines were maintained in vivo by successive s.c. transplants of tumour fragments in animal flanks.\n(§5) For chemotherapy experiments, tumour fragments (about 2 × 2 × 2 mm), obtained from tumour lines, were implanted s.c. Each control or drug-treated group included five or six mice bearing bilateral s.c. tumours. Tumours were implanted on day 0, and tumour growth was followed by biweekly measurements of tumour diameters with a vernier caliper. Tumour weight (TW) was calculated according to the formula: TW (mg)=tumour volume (mm^3)=d^2 × D/2, where d and D are the shortest and the longest diameter, respectively. Different treatment routes (i.v., s.c. or p.o.) and schedules (daily or intermittent) were investigated. […] Control mice were injected with the solvent solution.\n(§6) Experimental groups were eliminated when mean TW was about 1.5±0.5 g, or after 100 days.\n(§7) For statistical analysis, tumour weights in different groups of treated mice were compared on day of TWI% evaluation, by Student's t-test (two-tailed). P⩽0.05 was considered significant.\n(§8) The tolerability of the compound was assessed in tumour-bearing mice as follows: (a) lethal toxicity, that is, any death in treated mice without or with small (⩽300 mg) tumours, or occurring before any control death; (b) body weight loss % (BWL%)=100–(BW on day x/BW on day 1 × 100), where x represents a day after or during the treatment period. The maximal BWL values are reported; and (c) vesicant toxicity defined as the appearance of ulcers and/or inflammation at the injection site where the drugs were delivered s.c."}, "A2780/DX cells": {"test_system": "A2780/DX cells", "assay": "Antiproliferative activity, A2780/DX", "format": "cell-based", "details": "Homo sapiens, 72 h treatment, cell counting, MDR phenotype mediated by P-gp", "procedure": "as §1"}, "bFGF": {"test_system": "bFGF", "assay": "bFGF expression in GBM cells, immunoblotting", "details": "72 h at IC80: IDN 5390 40, PTX 17 ng ml^−1"}, "[3]": {"test_system": "INT.ACP/PTX PTX-resistant ovarian tumour xenograft", "assay": "Antitumour activity on INT.ACP/PTX xenograft", "details": "p.o.", "method": "as §2, §3, §4, §5, §6, §7, §8"}, "A2780/DDP cells": {"test_system": "A2780/DDP cells", "assay": "Antiproliferative activity, A2780/DDP", "format": "cell-based", "details": "Homo sapiens, 72 h treatment, cell counting, mean±s.d., three experiments", "procedure": "as §1"}, "[4]": {"test_system": "IGROV-1/Pt (human ovarian carcinoma)", "assay": "Antiproliferative activity, IGROV-1/Pt", "format": "cell-based", "procedure": "as §1"}, "[5]": {"test_system": "MX-1 mammary tumour xenograft", "details": "for LCK (1 g) / Max BWL (%) / Tox/Tot / Max TWI%: qd × 4–5/w × 3w"}, "VEGF": {"test_system": "VEGF", "assay": "VEGF expression in GBM cells, immunoblotting", "details": "72 h at IC80: IDN 5390 40, PTX 17 ng ml^−1"}, "GBM (human glioblastoma)": {"test_system": "GBM (human glioblastoma)", "assay": "Antiproliferative activity, GBM (Sulforhodamine B)", "format": "cell-based", "procedure": "as §1"}, "[6]": {"details": "mouse, in vivo"}, "tubulin": {"test_system": "tubulin", "assay": "Tubulin polymerisation assay in IGROV-1/Pt1 cells", "format": "cell-based, human", "details": "24 h", "procedure": "For tubulin polymerisation assay, IGROV-1/Pt1 cells were treated with PTX or IDN 5390 at the indicated concentrations for 24 h. Cells were then processed as previously described ([Cassinelli et al, 2001]) in order to separate cellular fractions containing soluble cytosolic or polymerised cytoskeletal tubulin. Samples were electrophoresed by sodium dodecyl sulphate (SDS)–PAGE (10% resolving gel and 3% stacking gel) and blotted onto nitrocellulose membranes. The distribution of tubulin was analysed by immunoblotting, using a rabbit polyclonal antitubulin antibody (BioMakor, Revohot, Israel)."}, "[7]": {"details": "s.c., qd × 5/w × 2w, 120 mg kg^−1"}, "[8]": {"details": "qd × 5/w × 2w, 2 × 120 mg kg^−1"}, "[9]": {"details": "2 × 90 mg kg^−1 p.o., up to 5 weeks, 50 treatments"}}, "note": "Several values for one entry are separate records, joined by “and”; a condition that tells them apart may be missing. Identical values can stand only once. Like-named read-outs stand apart in the source and are kept apart here."}
{"smiles": "CC(=O)O[C@@]1([C@@H]2/C(C)=C(/O)C(=O)C3=C(C)[C@@H](OC(=O)[C@H](O)[C@H](CC(C)C)NC(=O)OC(C)(C)C)C[C@@](O)([C@H]2OC(=O)c2ccccc2)C3(C)C)CO[C@@H]1CCO", "note": "[IDN 5390, 13-(N-Boc-β-isobutylisoserinyl)-10β-dehydro-C-seco-10-deacetylbaccatin III]", "values": [{"measurement": "reduction of cytotoxicity as compared to PTX", "setting": "human tumour cell lines", "value": "2–3 fold"}, {"measurement": "IC50", "setting": "[1]", "value": "0.023 ± 0.0004", "unit": "µg/mL"}, {"measurement": "LCK (1 g)", "setting": "[2]; i.v., q4d × 4, 90 mg kg^−1", "value": 0.2}, {"measurement": "Max BWL (%)", "setting": "[2]; i.v., q4d × 4, 90 mg kg^−1", "value": 0, "unit": "%"}, {"measurement": "Max TWI%", "setting": "[2]; i.v., q4d × 4, 90 mg kg^−1, day 18, start at tumour weight about 100 mg", "value": "17 (18) %"}, {"measurement": "Tox/Tot", "setting": "[2]; i.v., q4d × 4, 90 mg kg^−1", "value": "0/5"}, {"measurement": "LCK (1 g)", "setting": "[2]; i.v., q4d × 4, 120 mg kg^−1", "value": 0.3}, {"measurement": "Max BWL (%)", "setting": "[2]; i.v., q4d × 4, 120 mg kg^−1", "value": 3, "unit": "%"}, {"measurement": "Max TWI%", "setting": "[2]; i.v., q4d × 4, 120 mg kg^−1, day 18", "value": "46 (18) %"}, {"measurement": "Tox/Tot", "setting": "[2]; i.v., q4d × 4, 120 mg kg^−1", "value": "0/5"}, {"measurement": "LCK (1 g)", "setting": "[2]; [7]", "value": 1.8}, {"measurement": "Max BWL (%)", "setting": "[2]; [7]", "value": 2.5, "unit": "%"}, {"measurement": "Max TWI%", "setting": "[2]; s.c., qd × 5/w × 2w, 120 mg kg^−1, day 27", "value": "92 (27) %"}, {"measurement": "Tox/Tot", "setting": "[2]; [7]", "value": "0/5"}, {"measurement": "IC50", "setting": "A2780/DX cells", "value": 0.334, "unit": "µg/mL"}, {"measurement": "bFGF expression", "setting": "bFGF", "value": "downregulated"}, {"measurement": "LCK (1 g)", "setting": "[3]; qd × 5/w × 2w, 180 mg kg^−1", "value": 1.9}, {"measurement": "Max BWL (%)", "setting": "[3]; qd × 5/w × 2w, 180 mg kg^−1", "value": 10, "unit": "%"}, {"measurement": "Tox/Tot", "setting": "[3]; qd × 5/w × 2w, 180 mg kg^−1", "value": "2/5"}, {"measurement": "TWI% (day 27)", "setting": "[3]; qd × 5/w × 2w, 180 mg kg^−1, P<0.05 vs 2 × 90 mg kg^−1", "value": "96% and 96 ^* %"}, {"measurement": "LCK (1 g)", "setting": "[3]; [8]", "value": 1.4}, {"measurement": "Max BWL (%)", "setting": "[3]; [8]", "value": 15, "unit": "%"}, {"measurement": "TWI% (day 27)", "setting": "[3]; [8]", "value": 87, "unit": "%"}, {"measurement": "Tox/Tot", "setting": "[3]; [8]", "value": "1/5"}, {"measurement": "LCK (1 g)", "setting": "[3]; qd × 5/w × 3w, 2 × 90 mg kg^−1", "value": 0.8}, {"measurement": "Max BWL (%)", "setting": "[3]; qd × 5/w × 3w, 2 × 90 mg kg^−1", "value": 9, "unit": "%"}, {"measurement": "TWI% (day 27)", "setting": "[3]; qd × 5/w × 3w, 2 × 90 mg kg^−1", "value": 66, "unit": "%"}, {"measurement": "Tox/Tot", "setting": "[3]; qd × 5/w × 3w, 2 × 90 mg kg^−1", "value": "0/6"}, {"measurement": "IC50", "setting": "A2780/DDP cells", "value": "0.0318 ± 0.0055", "unit": "µg/mL"}, {"measurement": "IC50", "setting": "[4]; IGROV-1, 72 h treatment, cell counting, mean±s.d., three experiments", "value": "0.0615 ± 0.0045", "unit": "µg/mL"}, {"measurement": "IC80", "setting": "[4]; IGROV-1/Pt cells, read-out: IC80 (equitoxic concentration)", "value": 0.3, "unit": "µg/mL"}, {"measurement": "antitumour efficacy", "setting": "[5]; 30 mg kg^−1 p.o. twice a day, start when tumours averaged 100 mg", "value": "not very effective"}, {"measurement": "tumours exhibiting CR at the end of the experiment", "setting": "[5]; 2 × 90 mg kg^−1 p.o., 5 weeks, end of the experiment (100 days)", "value": "six out of 10"}, {"measurement": "lethal toxicity", "setting": "[5]; [9]", "value": "no lethal toxicity"}, {"measurement": "max BWL", "setting": "[5]; [9]", "value": 11, "unit": "%"}, {"measurement": "LCK (1 g)", "setting": "[5]; p.o., 120 mg kg^−1, from day 1", "value": 1.1}, {"measurement": "Max BWL (%)", "setting": "[5]; p.o., 120 mg kg^−1, from day 1", "value": 5, "unit": "%"}, {"measurement": "Tox/Tot", "setting": "[5]; p.o., 120 mg kg^−1, from day 1", "value": "0/5"}, {"measurement": "Max TWI%", "setting": "[5]; p.o., 120 mg kg^−1, from day 1, day 25", "value": "82(25) %"}, {"measurement": "TWI", "setting": "[5]; s.c., all doses, after 3 weeks of treatment", "value": "> 80", "unit": "%"}, {"measurement": "LCK (1 g)", "setting": "[5]; s.c., 60 mg kg^−1, from day 1", "value": 1.4}, {"measurement": "Max BWL (%)", "setting": "[5]; s.c., 60 mg kg^−1, from day 1", "value": 3, "unit": "%"}, {"measurement": "Tox/Tot", "setting": "[5]; s.c., 60 mg kg^−1, from day 1", "value": "0/3"}, {"measurement": "Max TWI%", "setting": "[5]; s.c., 60 mg kg^−1, from day 1, day 29", "value": "83(29) %"}, {"measurement": "LCK (1 g)", "setting": "[5]; s.c., 90 mg kg^−1, from day 1", "value": 2.7}, {"measurement": "Max BWL (%)", "setting": "[5]; s.c., 90 mg kg^−1, from day 1", "value": 3.5, "unit": "%"}, {"measurement": "Tox/Tot", "setting": "[5]; s.c., 90 mg kg^−1, from day 1", "value": "0/5"}, {"measurement": "Max TWI%", "setting": "[5]; s.c., 90 mg kg^−1, from day 1, day 29", "value": "97(29) %"}, {"measurement": "LCK (1 g)", "setting": "[5]; s.c., 120 mg kg^−1, from day 1", "value": "1.7–3.1"}, {"measurement": "Max BWL (%)", "setting": "[5]; s.c., 120 mg kg^−1, from day 1", "value": "6–7.5%"}, {"measurement": "Tox/Tot", "setting": "[5]; s.c., 120 mg kg^−1, from day 1", "value": "1/10"}, {"measurement": "Max TWI%", "setting": "[5]; s.c., 120 mg kg^−1, from day 1, day 25, P<0.05 vs p.o.", "value": "93–96 ^*(25) %"}, {"measurement": "VEGF expression", "setting": "VEGF", "value": "downregulated"}, {"measurement": "IC50", "setting": "GBM (human glioblastoma); 72 h treatment, Sulforhodamine B assay, mean±s.d., three experiments", "value": "0.0129 ± 0.0024", "unit": "µg/mL"}, {"measurement": "IC80", "setting": "GBM (human glioblastoma); GBM cells, read-out: IC80 (equitoxic concentration)", "value": 0.04, "unit": "µg/mL"}, {"measurement": "neurotoxicity", "setting": "[6]", "value": "no symptoms of neurotoxicity were evident"}, {"measurement": "tubulin polymerisation", "setting": "tubulin; equitoxic concentrations (IC80): IDN 5390 300, PTX 100 ng ml^−1", "value": "comparable extent of tubulin polymerisation"}, {"measurement": "tubulin polymerisation", "setting": "tubulin; same concentration (100 ng ml^−1), vs PTX", "value": "less effective than the parent drug"}]}
